In patent publication US12116371B2, “Substituted pyridines as irreversible inhibitors of menin-MLL interaction” (BIOMEA FUSION, INC., priority 2018, dated 2024):
Like-named read-outs stand apart in the source and are kept apart here.

Experiments:
SK-LU-1/AMG510 cells = test: Proliferation assay, cells in adhesion; assay type: cell-based; details: for IC50: Homo sapiens
Panc 10.05 cells = test: Proliferation assay, cells in adhesion; assay type: cell-based; details: for IC50: Homo sapiens
OCI-AML-3 cells = test: Long term proliferation assay, Cell Titer-Glo read-out; assay type: cell-based; details: for IC50: Homo sapiens; for % max: OCI-AML3
Procedure: (§1) Compounds of invention are tested in the 5 suspension lines by 14-day long-term proliferation assay.
(§2) The compound is tested in 10-pt dose titration (client will determine the starting concentration and the dilution scheme) and the final DMSO concentration is kept at 0.2%.
(§3) On Day 0, in a flat bottom 96-well plate, add 100 μL of cells per well at the densities optimized. Prepare compounds in DMSO at 500× final concentration. Dilute the compounds with DMSO at the dilution. Dilute the compounds in media at 3× final concentration. Add 50 μL of compound or DMSO at 3× final concentration to each well. Final volume in each well is 150 μL, and final concentration of DMSO is 0.2%. Also include 3 untreated control wells, by adding 50 μL of media alone. Incubate plates for 96 hours.
(§4) To do this take the total viable cell count calculated using step: • 1. Take the average of the replicates for each dose in order to be used in splitting the cells. • 2. Use a 96 well V-bottom plate to spin down the cells to remove old media and compound to split the cells. • 3. Based on the split ratio place the proper amount of media and cells into the V-bottom plate, and spin the plate at 1100 rpm for 5 minutes. • 4. Following the spin remove the media, careful not to disturb the cell pellet. Re-suspend pellet in 100 μL fresh media, and add to a new 96-well flat bottom plate. • 5. Add fresh compound, in the same manner as Step 3). • 6. Incubate plates for 72 hours. Repeat steps 5)-10) on Day 7. • 7. Incubate plates for 96 hours. Repeat Step 5)-10) on Day 11. • 8. Incubate 72 hours and repeat step 5) to take a final count. • 9. Data Analysis
(§5) To calculate growth for days 4, 7, 11, and 14: • 1. Calculate the split factor for day 4 to 7, day 7 to 11, and day 11-14. The split factor is the viable cells/mL on Day X (either 4, 7 or 11) divided by the density the cells are being split back to. • 2. For growth of cells from day 4 to 7, multiply the day 7 viable cells/mL density by the split factor from day 4. • 3. For growth of cells from day 7 to 11, multiply the day 11 viable cells/mL density by the days 4, and 7 split factors. • 4. For growth of cells from Day 11 to 14, multiply the Day 14 viable cells/mL density by the days 4, 7, and 11 split factors. • 5. Plot growth on semi-log chart (viable cells/mL on Y axis, in log, and days on X axis). • 6. The growth inhibition was calculated with the formula ((untreated cell numbers-treated cell numbers)/untreated cell)). • 7. Calculate the IC50 for each compound in each line using XLFit (Sigmoidal Dose-Response Model, y=(Bottom+((Top-Bottom)/(1+((IC50/×)^Hill))))).

KG-1 cells = test: as above; assay type: cell-based; details: for IC50: Homo sapiens
Procedure: as §1, §2, §3, §4, §5

SK-LU-1 cells = test: Proliferation assay, cells in adhesion; assay type: cell-based; details: for IC50: Homo sapiens
MV4-11 cells = test: Long term proliferation assay, Cell Titer-Glo read-out; assay type: cell-based, human; details: for IC50: Homo sapiens
Procedure: as §1, §2, §3, §4, §5

MOLM-13 cells = test: as above; assay type: cell-based, human; details: for IC50: Homo sapiens
Procedure: as §1, §2, §3, §4, §5

MIAPaCa-2/AMG510 cells = test: Proliferation assay, cells in adhesion; assay type: cell-based; details: for IC50: Homo sapiens

## C=CC(=O)NC1CCCN(Cc2ccnc(C(=O)Nc3ccc(-c4cc5c(N6CCOCC6)ncnc5[nH]4)cc3)c2)C1 (centres unmarked) [Compound 10]
SK-LU-1/AMG510 cells; SK-LU-1, SK-LU-1/AMG510, T4, read-out: IC50
  IC50: 720 nM
SK-LU-1/AMG510 cells; SK-LU-1, SK-LU-1/AMG510, T7, read-out: IC50
  IC50: 450 nM
SK-LU-1/AMG510 cells; SK-LU-1, SK-LU-1/AMG510, T7, read-out: pIC50 (converted)
  IC50: 447 nM
SK-LU-1/AMG510 cells; SK-LU-1/AMG510, T11, read-out: IC50
  IC50: 390 nM
SK-LU-1/AMG510 cells; SK-LU-1/AMG510, T11, read-out: pIC50 (converted)
  IC50: 389 nM
SK-LU-1/AMG510 cells; SK-LU-1/AMG510, T4
  % max: 83%
SK-LU-1/AMG510 cells; SK-LU-1/AMG510, T7
  % max: 95%
SK-LU-1/AMG510 cells; SK-LU-1/AMG510, T11
  % max: 98%
Panc 10.05 cells; Panc1005, Panc 10.05, T4, read-out: IC50
  IC50: 790 nM
Panc 10.05 cells; Panc1005, Panc 10.05, T4, read-out: pIC50 (converted)
  IC50: 794 nM
Panc 10.05 cells; Panc1005, Panc 10.05, T7, read-out: IC50
  IC50: 490 nM
Panc 10.05 cells; Panc1005, Panc 10.05, T7, read-out: pIC50 (converted)
  IC50: 490 nM
Panc 10.05 cells; Panc1005, Panc 10.05, T11, read-out: IC50
  IC50: 280 nM
Panc 10.05 cells; Panc1005, Panc 10.05, T11, read-out: pIC50 (converted)
  IC50: 282 nM
Panc 10.05 cells; Panc 10.05, T4
  % max: 84%
Panc 10.05 cells; Panc 10.05, T7
  % max: 97%
Panc 10.05 cells; Panc 10.05, T11
  % max: 99%
OCI-AML-3 cells; OCI-AML-3, 96 h, OCI-AML-3, Day 4, Cell Titer-Glo, read-out: Day 4 IC50
  IC50: 190 nM
OCI-AML-3 cells; OCI-AML-3, 168 h, OCI-AML-3, Day 7, Cell Titer-Glo, read-out: Day 7 IC50
  IC50: 140 nM
OCI-AML-3 cells; OCI-AML-3, 264 h, OCI-AML-3, Day 11, Cell Titer-Glo, read-out: Day 11 IC50
  IC50: 100 nM
OCI-AML-3 cells; OCI-AML-3, 336 h, OCI-AML-3, Day 14, Cell Titer-Glo, read-out: Day 14 IC50
  IC50: 120 nM
OCI-AML-3 cells; OCI-AML-3, OCI-AML3, T4, CellTiter-Glo, read-out: IC50
  IC50: 190 nM
OCI-AML-3 cells; OCI-AML-3, OCI-AML3, T4, CellTiter-Glo, read-out: pIC50 (converted)
  IC50: 191 nM
OCI-AML-3 cells; OCI-AML-3, OCI-AML3, T11, CellTiter-Glo, read-out: IC50
  IC50: 100 nM
OCI-AML-3 cells; OCI-AML-3, OCI-AML3, T11, CellTiter-Glo, read-out: pIC50 (converted)
  IC50: 100 nM
OCI-AML-3 cells; T4, CellTiter-Glo
  % max: 99%
OCI-AML-3 cells; T11, CellTiter-Glo
  % max: 99%
KG-1 cells; 96 h, Day 4, Cell Titer-Glo, read-out: Day 4 IC50
  IC50: 470 nM
KG-1 cells; 168 h, Day 7, Cell Titer-Glo, read-out: Day 7 IC50
  IC50: 330 nM
KG-1 cells; 264 h, Day 11, Cell Titer-Glo, read-out: Day 11 IC50
  IC50: 270 nM
KG-1 cells; 336 h, Day 14, Cell Titer-Glo, read-out: Day 14 IC50
  IC50: 240 nM
KG-1 cells; T4, CellTiter-Glo, read-out: IC50
  IC50: 470 nM
KG-1 cells; T4, CellTiter-Glo, read-out: pIC50 (converted)
  IC50: 468 nM
KG-1 cells; T11, CellTiter-Glo, read-out: IC50
  IC50: 270 nM
KG-1 cells; T11, CellTiter-Glo, read-out: pIC50 (converted)
  IC50: 269 nM
KG-1 cells; T4, CellTiter-Glo
  % max: 99%
KG-1 cells; T11, CellTiter-Glo
  % max: 99%
SK-LU-1 cells; SK-LU-1, SK-LU-1, T4, read-out: IC50
  IC50: 680 nM
SK-LU-1 cells; SK-LU-1, SK-LU-1, T7, read-out: IC50
  IC50: 590 nM
SK-LU-1 cells; SK-LU-1, SK-LU-1, T7, read-out: pIC50 (converted)
  IC50: 589 nM
SK-LU-1 cells; SK-LU-1, SK-LU-1, T11, read-out: IC50
  IC50: 370 nM
SK-LU-1 cells; SK-LU-1, SK-LU-1, T11, read-out: pIC50 (converted)
  IC50: 372 nM
SK-LU-1 cells; SK-LU-1, T4
  % max: 82%
SK-LU-1 cells; SK-LU-1, T7
  % max: 95%
SK-LU-1 cells; SK-LU-1, T11
  % max: 96%
MV4-11 cells; MV4-11, 96 h, MV4-11, Day 4, Cell Titer-Glo, read-out: Day 4 IC50
  IC50: 150 nM
MV4-11 cells; MV4-11, 168 h, MV4-11, Day 7, Cell Titer-Glo, read-out: Day 7 IC50
  IC50: 70 nM
MV4-11 cells; MV4-11, 264 h, MV4-11, Day 11, Cell Titer-Glo, read-out: Day 11 IC50
  IC50: 60 nM
MV4-11 cells; MV4-11, 336 h, MV4-11, Day 14, Cell Titer-Glo, read-out: Day 14 IC50
  IC50: 50 nM
MV4-11 cells; MV4-11, MV4-11, T4, CellTiter-Glo, read-out: IC50
  IC50: 150 nM
MV4-11 cells; MV4-11, MV4-11, T4, CellTiter-Glo, read-out: pIC50 (converted)
  IC50: 151 nM
MV4-11 cells; MV4-11, MV4-11, T11, CellTiter-Glo, read-out: IC50
  IC50: 60 nM
MV4-11 cells; MV4-11, MV4-11, T11, CellTiter-Glo, read-out: pIC50 (converted)
  IC50: 56.2 nM
MV4-11 cells; MV4-11, T4, CellTiter-Glo
  % max: 99%
MV4-11 cells; MV4-11, T11, CellTiter-Glo
  % max: 99%
MOLM-13 cells; MOLM-13, 96 h, MOLM-13, Day 4, Cell Titer-Glo, read-out: Day 4 IC50
  IC50: 100 nM
MOLM-13 cells; MOLM-13, 168 h, MOLM-13, Day 7, Cell Titer-Glo, read-out: Day 7 IC50
  IC50: 50 nM
MOLM-13 cells; MOLM-13, 264 h, MOLM-13, Day 11, Cell Titer-Glo, read-out: Day 11 IC50
  IC50: 50 nM
MOLM-13 cells; MOLM-13, 336 h, MOLM-13, Day 14, Cell Titer-Glo, read-out: Day 14 IC50
  IC50: 80 nM
MOLM-13 cells; MOLM-13, MOLM-13, T4, CellTiter-Glo, read-out: IC50
  IC50: 100 nM
MOLM-13 cells; MOLM-13, MOLM-13, T4, CellTiter-Glo, read-out: pIC50 (converted)
  IC50: 97.7 nM
MOLM-13 cells; MOLM-13, MOLM-13, T11, CellTiter-Glo, read-out: IC50
  IC50: 50 nM
MOLM-13 cells; MOLM-13, MOLM-13, T11, CellTiter-Glo, read-out: pIC50 (converted)
  IC50: 47.9 nM
MOLM-13 cells; MOLM-13, T4, CellTiter-Glo
  % max: 98%
MOLM-13 cells; MOLM-13, T11, CellTiter-Glo
  % max: 99%
MIAPaCa-2/AMG510 cells; MIA PaCa-2, MIAPaCa-2/AMG510, T4, read-out: IC50
  IC50: 300 nM
MIAPaCa-2/AMG510 cells; MIA PaCa-2, MIAPaCa-2/AMG510, T4, read-out: pIC50 (converted)
  IC50: 295 nM
MIAPaCa-2/AMG510 cells; MIA PaCa-2, MIAPaCa-2/AMG510, T7, read-out: IC50
  IC50: 170 nM
MIAPaCa-2/AMG510 cells; MIA PaCa-2, MIAPaCa-2/AMG510, T7, read-out: pIC50 (converted)
  IC50: 166 nM
MIAPaCa-2/AMG510 cells; MIAPaCa-2/AMG510, T11, read-out: IC50
  IC50: 150 nM
MIAPaCa-2/AMG510 cells; MIAPaCa-2/AMG510, T11, read-out: pIC50 (converted)
  IC50: 151 nM
MIAPaCa-2/AMG510 cells; MIAPaCa-2/AMG510, T4
  % max: 92%
MIAPaCa-2/AMG510 cells; MIAPaCa-2/AMG510, T7
  % max: 98%
MIAPaCa-2/AMG510 cells; MIAPaCa-2/AMG510, T11
  % max: 99%
